Reference: publication PMC6591251, “Discovery of potent necroptosis inhibitors targeting RIPK1 kinase activity for the treatment of inflammatory disorder and cancer metastasis” (Cell Death & Disease, 2019)

Columns and labels:
Test in all cases: RBC kinase panel
Assay type in all cases: biochemical
Details in all cases: ATP 10 μM, Data1, Data2
[1] = biological target: T1, ALK (Homo sapiens, UniProt Q9UM73)
T1 construct: purchased Reaction Biology Corporation
Experimental: (§1) PK68 was tested at 1 μM in duplicate against a panel of 369 human kinases at Reaction Biology Corporation. Results are viewed in the human kinome phylogenetic tree.
(§2) ^a Compound PK68 was tested at 1 μM in duplicate against 369 kinases using the RBC kinase panel service of Reaction Biology Corporation. All the ATP concentrations used were 10 μM. […] Full protocol details are available at http://www.reactionbiology.com.

[2] = biological target: T2, Aurora C (Homo sapiens, UniProt Q9UQB9)
T2 construct: purchased Reaction Biology Corporation
Experimental: as §1, §2

[3] = biological target: T3, BMPR2 (Homo sapiens, UniProt Q13873)
T3 construct: purchased Reaction Biology Corporation
T3 sequence (Q13873 27-1038): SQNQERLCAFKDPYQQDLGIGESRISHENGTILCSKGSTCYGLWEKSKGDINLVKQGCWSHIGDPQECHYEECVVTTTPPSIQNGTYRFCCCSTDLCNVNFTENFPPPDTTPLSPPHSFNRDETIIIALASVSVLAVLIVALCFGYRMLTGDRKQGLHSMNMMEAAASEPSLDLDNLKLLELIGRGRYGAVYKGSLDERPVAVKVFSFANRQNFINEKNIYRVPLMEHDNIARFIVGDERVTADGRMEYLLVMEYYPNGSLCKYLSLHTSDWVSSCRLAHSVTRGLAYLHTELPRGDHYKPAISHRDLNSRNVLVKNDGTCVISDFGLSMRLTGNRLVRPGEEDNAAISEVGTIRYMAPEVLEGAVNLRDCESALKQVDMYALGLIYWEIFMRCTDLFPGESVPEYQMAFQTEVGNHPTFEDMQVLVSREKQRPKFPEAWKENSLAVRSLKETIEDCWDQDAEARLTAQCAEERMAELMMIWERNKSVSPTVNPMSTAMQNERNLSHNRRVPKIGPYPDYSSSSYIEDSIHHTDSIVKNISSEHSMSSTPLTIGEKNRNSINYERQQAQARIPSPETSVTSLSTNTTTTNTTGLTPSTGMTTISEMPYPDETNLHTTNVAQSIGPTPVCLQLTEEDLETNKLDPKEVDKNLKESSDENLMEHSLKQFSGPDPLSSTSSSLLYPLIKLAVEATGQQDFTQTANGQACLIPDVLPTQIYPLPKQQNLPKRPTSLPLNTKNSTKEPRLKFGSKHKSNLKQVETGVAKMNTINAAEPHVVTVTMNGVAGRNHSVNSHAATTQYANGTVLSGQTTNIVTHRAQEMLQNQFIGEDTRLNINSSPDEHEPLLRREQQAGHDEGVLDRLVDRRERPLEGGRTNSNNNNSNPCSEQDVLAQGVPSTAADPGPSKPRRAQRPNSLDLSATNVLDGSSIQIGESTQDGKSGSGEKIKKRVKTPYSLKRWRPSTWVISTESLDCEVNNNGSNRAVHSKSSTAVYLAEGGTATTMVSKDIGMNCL
Experimental: as §1, §2

[4] = biological target: T4, BRK (Homo sapiens, UniProt Q13882)
T4 construct: purchased Reaction Biology Corporation
T4 sequence (Q13882 whole entry): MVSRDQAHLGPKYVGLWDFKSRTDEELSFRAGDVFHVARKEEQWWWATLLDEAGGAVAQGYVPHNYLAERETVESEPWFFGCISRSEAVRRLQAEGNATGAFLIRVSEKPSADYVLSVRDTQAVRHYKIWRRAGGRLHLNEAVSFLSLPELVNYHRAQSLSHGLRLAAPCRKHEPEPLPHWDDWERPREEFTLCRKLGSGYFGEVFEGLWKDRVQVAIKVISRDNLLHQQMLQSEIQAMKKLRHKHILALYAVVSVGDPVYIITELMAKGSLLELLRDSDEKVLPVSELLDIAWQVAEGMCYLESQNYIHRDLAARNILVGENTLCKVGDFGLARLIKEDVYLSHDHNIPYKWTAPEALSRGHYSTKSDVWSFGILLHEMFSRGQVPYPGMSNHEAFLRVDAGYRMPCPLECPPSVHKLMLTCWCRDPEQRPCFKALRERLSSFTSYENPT
Experimental: as §1, §2

[5] = biological target: T5, CAMK1d (Homo sapiens, UniProt Q8IU85)
T5 construct: purchased Reaction Biology Corporation
Experimental: as §1, §2

[6] = biological target: T6, CAMKK2 (Homo sapiens, UniProt Q96RR4)
T6 construct: purchased Reaction Biology Corporation
T6 sequence (Q96RR4 whole entry): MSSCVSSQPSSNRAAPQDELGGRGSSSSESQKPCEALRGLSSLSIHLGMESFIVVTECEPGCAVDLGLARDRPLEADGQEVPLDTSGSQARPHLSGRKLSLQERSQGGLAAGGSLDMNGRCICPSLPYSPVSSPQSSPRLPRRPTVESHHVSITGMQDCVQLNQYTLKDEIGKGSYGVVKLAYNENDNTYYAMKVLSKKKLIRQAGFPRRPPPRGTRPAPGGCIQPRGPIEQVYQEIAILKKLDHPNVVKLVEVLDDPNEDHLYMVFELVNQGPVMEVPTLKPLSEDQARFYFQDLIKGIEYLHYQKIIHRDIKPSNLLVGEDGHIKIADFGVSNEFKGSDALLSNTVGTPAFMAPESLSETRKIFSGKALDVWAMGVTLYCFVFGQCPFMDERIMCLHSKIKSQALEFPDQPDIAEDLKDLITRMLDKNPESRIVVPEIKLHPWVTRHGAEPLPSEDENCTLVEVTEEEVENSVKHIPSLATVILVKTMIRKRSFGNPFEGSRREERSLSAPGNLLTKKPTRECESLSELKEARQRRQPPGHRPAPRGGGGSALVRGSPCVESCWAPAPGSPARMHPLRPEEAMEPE
Experimental: as §1, §2

[7] = biological target: T7, CDK9/cyclin T1 (Homo sapiens, UniProt P50750)
T7 construct: purchased Reaction Biology Corporation
Experimental: as §1, §2

[8] = biological target: T8, CK1epsilon (Homo sapiens, UniProt P49674)
T8 construct: purchased Reaction Biology Corporation
Experimental: as §1, §2

[9] = biological target: T9, CK1g3 (Homo sapiens, UniProt Q9Y6M4)
T9 construct: purchased Reaction Biology Corporation
T9 sequence (Q9Y6M4 whole entry): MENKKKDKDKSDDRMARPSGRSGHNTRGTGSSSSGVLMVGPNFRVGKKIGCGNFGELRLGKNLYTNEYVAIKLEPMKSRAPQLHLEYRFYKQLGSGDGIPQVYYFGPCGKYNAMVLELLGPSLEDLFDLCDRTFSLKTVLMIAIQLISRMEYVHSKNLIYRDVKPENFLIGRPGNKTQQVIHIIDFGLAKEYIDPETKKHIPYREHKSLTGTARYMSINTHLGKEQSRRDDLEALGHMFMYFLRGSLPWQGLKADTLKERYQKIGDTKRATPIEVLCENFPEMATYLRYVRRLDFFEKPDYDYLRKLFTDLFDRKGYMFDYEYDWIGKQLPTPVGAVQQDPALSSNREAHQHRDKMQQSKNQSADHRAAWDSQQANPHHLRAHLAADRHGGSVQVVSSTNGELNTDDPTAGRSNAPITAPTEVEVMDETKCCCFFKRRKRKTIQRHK
Experimental: as §1, §2

[10] = biological target: T10, CLK4 (Homo sapiens, UniProt Q9HAZ1)
T10 construct: purchased Reaction Biology Corporation
Experimental: as §1, §2

[11] = biological target: T11, CTK/MATK (Homo sapiens, UniProt P42679)
T11 construct: purchased Reaction Biology Corporation
Experimental: as §1, §2

[12] = biological target: T12, EPHA8 (Homo sapiens, UniProt P29322)
T12 construct: purchased Reaction Biology Corporation
Experimental: as §1, §2

[13] = biological target: T13, ERK2/MAPK1 (Homo sapiens, UniProt P28482)
T13 construct: purchased Reaction Biology Corporation
Experimental: as §1, §2

[14] = biological target: T14, FLT4/VEGFR3 (Homo sapiens, UniProt P35916)
T14 construct: purchased Reaction Biology Corporation
Experimental: as §1, §2

[15] = biological target: T15, FRK/PTK5 (Homo sapiens, UniProt P42685)
T15 construct: purchased Reaction Biology Corporation
Experimental: as §1, §2

[16] = biological target: T16, GRK6 (Homo sapiens, UniProt P43250)
T16 construct: purchased Reaction Biology Corporation
Experimental: as §1, §2

[17] = biological target: T17, HIPK4 (Homo sapiens, UniProt Q8NE63)
T17 construct: purchased Reaction Biology Corporation
Experimental: as §1, §2

[18] = biological target: T18, IR (Homo sapiens, UniProt P06213)
T18 construct: purchased Reaction Biology Corporation
Experimental: as §1, §2

[19] = biological target: T19, MARK1 (Homo sapiens, UniProt Q9P0L2)
T19 construct: purchased Reaction Biology Corporation
Experimental: as §1, §2

[20] = biological target: T20, MEK1 (Homo sapiens, UniProt Q02750)
T20 construct: purchased Reaction Biology Corporation
Experimental: as §1, §2

[21] = biological target: T21, MLK2/MAP3K10 (Homo sapiens, UniProt Q02779)
T21 construct: purchased Reaction Biology Corporation
Experimental: as §1, §2

[22] = biological target: T22, MSSK1/STK23 (Homo sapiens, UniProt Q9UPE1)
T22 construct: purchased Reaction Biology Corporation
Experimental: as §1, §2

[23] = biological target: T23, PAK2 (Homo sapiens, UniProt Q13177)
T23 construct: purchased Reaction Biology Corporation
Experimental: as §1, §2

[24] = biological target: T24, PAK3 (Homo sapiens, UniProt O75914)
T24 construct: purchased Reaction Biology Corporation
Experimental: as §1, §2

[25] = biological target: T25, PKD2/PRKD2 (Homo sapiens, UniProt Q9BZL6)
T25 construct: purchased Reaction Biology Corporation
Experimental: as §1, §2

[26] = biological target: T26, PRKX (Homo sapiens, UniProt P51817)
T26 construct: purchased Reaction Biology Corporation
Experimental: as §1, §2

[27] = biological target: T27, RIPK2 (Homo sapiens, UniProt O43353)
T27 construct: purchased Reaction Biology Corporation
Experimental: as §1, §2

[28] = biological target: T28, ROCK1 (Homo sapiens, UniProt Q13464)
T28 construct: purchased Reaction Biology Corporation
T28 sequence (Q13464 whole entry): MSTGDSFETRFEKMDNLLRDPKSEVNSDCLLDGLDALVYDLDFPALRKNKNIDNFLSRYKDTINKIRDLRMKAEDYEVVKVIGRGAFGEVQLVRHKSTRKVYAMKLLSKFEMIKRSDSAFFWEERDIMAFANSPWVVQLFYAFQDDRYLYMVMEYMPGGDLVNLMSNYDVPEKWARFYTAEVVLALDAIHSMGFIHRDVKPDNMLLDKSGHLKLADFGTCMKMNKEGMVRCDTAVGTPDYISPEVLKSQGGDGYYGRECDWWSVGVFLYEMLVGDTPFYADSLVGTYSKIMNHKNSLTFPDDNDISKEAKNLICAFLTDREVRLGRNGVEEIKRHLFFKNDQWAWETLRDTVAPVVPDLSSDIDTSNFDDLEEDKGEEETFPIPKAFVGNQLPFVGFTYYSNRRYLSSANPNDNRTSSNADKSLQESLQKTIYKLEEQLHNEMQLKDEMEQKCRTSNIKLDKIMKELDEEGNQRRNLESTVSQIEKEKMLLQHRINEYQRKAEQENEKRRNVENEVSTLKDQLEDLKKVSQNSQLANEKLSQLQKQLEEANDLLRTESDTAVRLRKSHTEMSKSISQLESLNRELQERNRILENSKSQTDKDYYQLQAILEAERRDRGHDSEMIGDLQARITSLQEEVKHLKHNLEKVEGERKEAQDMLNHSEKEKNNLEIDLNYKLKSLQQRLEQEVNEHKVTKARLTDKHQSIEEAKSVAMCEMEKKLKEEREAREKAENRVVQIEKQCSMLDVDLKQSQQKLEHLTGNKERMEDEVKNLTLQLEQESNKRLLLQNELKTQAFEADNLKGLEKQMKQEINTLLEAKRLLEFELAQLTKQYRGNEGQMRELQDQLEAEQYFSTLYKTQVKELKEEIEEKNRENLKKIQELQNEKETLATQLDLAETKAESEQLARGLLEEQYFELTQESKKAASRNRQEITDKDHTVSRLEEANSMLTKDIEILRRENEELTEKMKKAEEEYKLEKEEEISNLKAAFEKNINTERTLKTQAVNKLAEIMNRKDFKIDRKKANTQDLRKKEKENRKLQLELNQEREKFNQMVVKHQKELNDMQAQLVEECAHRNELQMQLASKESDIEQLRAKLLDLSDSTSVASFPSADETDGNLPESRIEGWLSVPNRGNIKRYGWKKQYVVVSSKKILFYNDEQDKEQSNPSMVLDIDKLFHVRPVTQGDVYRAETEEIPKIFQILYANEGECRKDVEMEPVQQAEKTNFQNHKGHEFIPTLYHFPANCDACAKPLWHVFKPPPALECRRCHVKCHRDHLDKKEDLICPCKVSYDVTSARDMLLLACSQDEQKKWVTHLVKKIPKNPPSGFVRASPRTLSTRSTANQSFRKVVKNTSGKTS
Experimental: as §1, §2

[29] = biological target: T29, STK38L/NDR2 (Homo sapiens, UniProt Q9Y2H1)
T29 construct: purchased Reaction Biology Corporation
Experimental: as §1, §2

[30] = biological target: T30, TAOK1 (Homo sapiens, UniProt Q7L7X3)
T30 construct: purchased Reaction Biology Corporation
Experimental: as §1, §2

[31] = biological target: T31, TAOK2/TAO1 (Homo sapiens, UniProt Q9UL54)
T31 construct: purchased Reaction Biology Corporation
T31 sequence (Q9UL54 whole entry): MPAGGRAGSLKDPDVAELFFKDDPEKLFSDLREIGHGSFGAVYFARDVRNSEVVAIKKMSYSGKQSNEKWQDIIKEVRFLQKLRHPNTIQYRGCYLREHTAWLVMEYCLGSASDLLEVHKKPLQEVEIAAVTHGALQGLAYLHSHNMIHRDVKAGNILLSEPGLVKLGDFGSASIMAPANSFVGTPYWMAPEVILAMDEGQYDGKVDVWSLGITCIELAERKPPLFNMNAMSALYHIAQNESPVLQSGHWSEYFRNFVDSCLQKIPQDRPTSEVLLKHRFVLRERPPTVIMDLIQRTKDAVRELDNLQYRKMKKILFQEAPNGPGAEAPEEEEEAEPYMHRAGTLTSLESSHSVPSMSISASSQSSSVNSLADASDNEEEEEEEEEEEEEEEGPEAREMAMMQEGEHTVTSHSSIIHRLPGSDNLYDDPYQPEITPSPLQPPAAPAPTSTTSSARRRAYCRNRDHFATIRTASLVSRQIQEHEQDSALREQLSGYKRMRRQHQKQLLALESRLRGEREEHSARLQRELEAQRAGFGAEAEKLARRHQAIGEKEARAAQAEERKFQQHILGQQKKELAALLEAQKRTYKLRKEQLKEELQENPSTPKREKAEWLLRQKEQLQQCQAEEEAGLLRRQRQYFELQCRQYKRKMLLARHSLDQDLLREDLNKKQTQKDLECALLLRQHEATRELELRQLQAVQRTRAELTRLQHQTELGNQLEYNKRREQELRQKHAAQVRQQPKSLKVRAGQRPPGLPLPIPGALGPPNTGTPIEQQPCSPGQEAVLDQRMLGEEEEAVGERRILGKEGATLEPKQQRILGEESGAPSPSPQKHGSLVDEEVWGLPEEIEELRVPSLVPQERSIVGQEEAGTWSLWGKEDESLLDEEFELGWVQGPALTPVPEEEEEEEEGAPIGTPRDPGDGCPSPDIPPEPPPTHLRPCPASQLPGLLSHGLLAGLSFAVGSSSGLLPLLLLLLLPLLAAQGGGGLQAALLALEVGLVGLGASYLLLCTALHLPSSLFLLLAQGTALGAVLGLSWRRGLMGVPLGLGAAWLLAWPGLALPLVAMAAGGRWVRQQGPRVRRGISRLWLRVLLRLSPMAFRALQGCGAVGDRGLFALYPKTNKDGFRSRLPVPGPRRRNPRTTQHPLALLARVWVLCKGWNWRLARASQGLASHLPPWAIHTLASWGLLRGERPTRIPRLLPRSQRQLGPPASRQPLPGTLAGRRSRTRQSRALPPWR
Experimental: as §1, §2

[32] = biological target: T32, TBK1 (Homo sapiens, UniProt Q9UHD2)
T32 construct: purchased Reaction Biology Corporation
Experimental: as §1, §2

[33] = biological target: T33, TNK1 (Homo sapiens, UniProt Q13470)
T33 construct: purchased Reaction Biology Corporation
Experimental: as §1, §2

`CC(=O)Nc1nc2ccc(-c3cnc(C)c(NC(=O)OC4CCCCC4)c3)cc2s1` [PK68, cyclohexyl (5-(2-acetamidobenzo[d]thiazol-6-yl)-2-methylpyridin-3-yl)carbamate] was tested, and the Activity% ([1]; 1 μM) was 94.03%, the activity at 1 µM [1] was 96.1% and the Activity% ([2]; 1 μM) was 92.22%. The activity at 1 µM [2] was 94.1%, the Activity% ([3]; 1 μM) was 95.12% and the activity at 1 µM [3] was 95.5%. The Activity% ([4]; 1 μM) was 96.14%, the activity at 1 µM [4] was 97.5% and the Activity% ([5]; 1 μM) was 100.76%. For the same compound, the activity at 1 µM [5] was 103%, the Activity% ([6]; 1 μM) was 79.89% and the activity at 1 µM [6] was 80.1%. It also gave an Activity% ([7]; 1 μM) of 110.56%, an activity at 1 µM [7] of 111% and an Activity% ([8]; 1 μM) of 74.35%. For the same compound, the activity at 1 µM [8] was 78.2%, the Activity% ([9]; 1 μM) was 87.02% and the activity at 1 µM [9] was 87.1%. It also gave an Activity% ([10]; 1 μM) of 70.07%, an activity at 1 µM [10] of 71% and an Activity% ([11]; 1 μM) of 93.51%. For the same compound, the activity at 1 µM [11] was 93.8%, the Activity% ([12]; 1 μM) was 99.05% and the activity at 1 µM [12] was 100%. For the same compound, the Activity% ([13]; 1 μM) was 92.60%, the activity at 1 µM [13] was 96.9% and the Activity% ([14]; 1 μM) was 90.37%. For the same compound, the activity at 1 µM [14] was 91%, the Activity% ([15]; 1 μM) was 97.78% and the activity at 1 µM [15] was 101%. It also gave an Activity% ([16]; 1 μM) of 99.89%, an activity at 1 µM [16] of 102% and an Activity% ([17]; 1 μM) of 72.16%. For the same compound, the activity at 1 µM [17] was 74.6%, the Activity% ([18]; 1 μM) was 81.00% and the activity at 1 µM [18] was 81.6%. The Activity% ([19]; 1 μM) was 96.33%, the activity at 1 µM [19] was 97% and the Activity% ([20]; 1 μM) was 97.25%. For the same compound, the activity at 1 µM [20] was 99%, the Activity% ([21]; 1 μM) was 55.63% and the activity at 1 µM [21] was 57%. For the same compound, the Activity% ([22]; 1 μM) was 100.79%, the activity at 1 µM [22] was 103% and the Activity% ([23]; 1 μM) was 104.24%. For the same compound, the activity at 1 µM [23] was 105%, the Activity% ([24]; 1 μM) was 99.63% and the activity at 1 µM [24] was 103%. For the same compound, the Activity% ([25]; 1 μM) was 90.63%, the activity at 1 µM [25] was 93.9% and the Activity% ([26]; 1 μM) was 103.46%. It also gave an activity at 1 µM [26] of 104%, an Activity% ([27]; 1 μM) of 85.19% and an activity at 1 µM [27] of 91.2%. It also gave an Activity% ([28]; 1 μM) of 99.31%, an activity at 1 µM [28] of 101% and an Activity% ([29]; 1 μM) of 100.42%. The activity at 1 µM [29] was 101%, the Activity% ([30]; 1 μM) was 79.31% and the activity at 1 µM [30] was 79.8%. It also gave an Activity% ([31]; 1 μM) of 81.88%, an activity at 1 µM [31] of 82.6% and an Activity% ([32]; 1 μM) of 96.55%. It also gave an activity at 1 µM [32] of 97%, an Activity% ([33]; 1 μM) of 86.66% and an activity at 1 µM [33] of 87.9%.
